Inhibition and IC50 data for 29 compounds are collected here from patent US20050014952A1, “Novel thiazoline derivatives as selective androgen receptor modulators (SARMS)” (priority 2003, published 2005).

The target in assay [1] is T1, androgen receptor (Rattus norvegicus, UniProt P15207).
T1 construct: 5 pmol androgen receptor LBD (Panvera); purchased Panvera
T1 sequence (P15207 651-882 limits assumed): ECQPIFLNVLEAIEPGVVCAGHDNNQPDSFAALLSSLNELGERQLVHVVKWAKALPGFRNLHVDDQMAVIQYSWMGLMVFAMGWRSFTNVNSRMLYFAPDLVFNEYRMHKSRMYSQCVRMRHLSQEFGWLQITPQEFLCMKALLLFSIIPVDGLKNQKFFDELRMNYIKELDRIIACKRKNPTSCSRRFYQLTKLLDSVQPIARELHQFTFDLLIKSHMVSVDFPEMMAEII
Briefly: Androgen Receptor Filtration Binding Assay ([3H] R1881 tracer). Particulars: Androgen Receptor Binding Results. As to the method:
In Vitro Assay—Androgen Receptor Filtration Binding Assay
The assay was run on a 96 well plate with each well filled with total reaction volume 150 μL, of a solution containing 5 pmol androgen receptor LBD (Panvera) or 30 μL of freshly prepared rat cytosol, 0.5 nM [^3H] R1881 tracer (NEN), 1.5 μL (10 μM) test compound or vehicle (diluted in 30% DMSO, final concentration of DMSO 0.75%) and […] of TED buffer. (TED buffer contains 10 mM Tris.HCl pH 7.4, 1 mM sodium molybdate (60 mg/250 mL), 1.5 mM EDTA, 1 mM DTT and 10% (v/v) glycerol.)
On day one, the solution containing receptor, tracer and TED buffer was distributed onto a 96 well plate. Diluted test compound or control vehicle was then added to individual wells and the plate incubated at 4° C. overnight.
On day two, to each well was then added 20 μL human γ-globulin (ICN 823102), prepared at 25 mg/ml in TE pH 8.0, and 55 μL 40% polyethylene glycol 8000 (J T Baker U222-08), prepared in TE pH 8.0. The plate was incubated at 4° C. for 60 minutes. During incubation, the harvester was rinsed with 10% PEG 8000, prepared in TE pH 8.0 and the GF/C Unifilter-96 prewet with 10% PEG. The binding reaction was filtered, the retentate was washed three times with 10% PEG and dried under vacuum for about four minutes, then dried at 50° C. for 5 min and then bottom sealed. 25 μL of Microscint-20 (Packard) was added to the filter wells and top sealed. The plate wells were then counted on a TopCount (Packard).
Selected compounds of the present invention were tested for binding to the androgen receptor according to the procedure described above with results as listed in Table 2. Negative number(s) indicate that there is no antagonist activity for the test compound. The compound may however have agonist activity, which was not tested for.

For assay [2], the target named is T1, androgen receptor. Described as above. Conditions: @ 1 μM test compound; negative values indicate no antagonist activity; cmpd 4: two separate synthesis batches; cmpds 5 and 7: average of 2.

SMILES strings stand for the structures.

Usually inhibition stands for the drop in the measured response relative to a control, in per cent. Turning to `N#Cc1ccc(NC(=O)C2CSC(c3ccc(F)cc3)=N2)cc1C(F)(F)F` (stereo not drawn) [Cmpd #1, 2-(4-fluoro-phenyl)-4,5-dihydro-thiazole-4-carboxylic Acid (3-trifluoromethyl-4-cyano-phenyl)-amide], the inhibition at 10 µM at androgen receptor [1] (@ 10 μM test compound) came out at 50%. In addition, the inhibition at 1 µM at androgen receptor [2] was 28.5%.

For the compound `N#Cc1ccc(NC(=O)C2CSC(c3ccc(F)cc3)=N2)cc1` (stereo not drawn) [Cmpd #2, 2-(4-fluoro-phenyl)-4,5-dihydro-thiazole-4-carboxylic Acid (4-cyano-phenyl)-amide], the inhibition at 1 µM at androgen receptor [2] is -26%.

As to `N#Cc1ccc(NC(=O)C2CSC(c3cccc(F)c3)=N2)cc1C(F)(F)F` (stereo not drawn) [Cmpd #3, 2-(3-fluoro-phenyl)-4,5-dihydro-thiazole-4-carboxylic Acid (4-cyano-3-trifluoromethyl-phenyl)-amide], the inhibition at 1 µM at androgen receptor [2] came out at 8.1%.

As for `O=C(Nc1ccc(F)c(C(F)(F)F)c1)C1CSC(c2ccc(F)cc2)=N1` (stereo not drawn) [Cmpd #7, 2-(4-fluoro-phenyl)-4,5-dihydro-thiazole-4-carboxylic Acid (4-fluoro-3-trifluoromethyl-phenyl)-amide], on androgen receptor [2], the inhibition at 1 µM is -24.2%.

With `N#Cc1ccc(NC(=O)C2CSC(c3ccc(Cl)cc3)=N2)cc1C(F)(F)F` (stereo not drawn) [Cmpd #9, 2-(4-chloro-phenyl)-4,5-dihydro-thiazole-4-carboxylic acid (4-cyano-3-trifluoromethyl-phenyl)-amide], at androgen receptor [2], the inhibition at 1 µM amounted to 41.5%.

Regarding `O=C(Nc1ccc([N+](=O)[O-])c(C(F)(F)F)c1)C1CSC(c2ccc(Cl)cc2)=N1` (stereo not drawn) [Cmpd #10, 2-(4-chloro-phenyl)-4,5-dihydro-thiazole-4-carboxylic acid (4-nitro-3-trifluoromethyl-phenyl)-amide], the inhibition at 1 µM at androgen receptor [2] was 60.5%.

In general, IC50 refers to the midpoint of a concentration-inhibition curve. `O=C(Nc1ccc(Cl)c(C(F)(F)F)c1)C1CSC(c2ccc(Cl)cc2)=N1` (stereo not drawn) [Cmpd #11, 2-(4-chloro-phenyl)-4,5-dihydro-thiazole-4-carboxylic acid (4-chloro-3-trifluoromethyl-phenyl)-amide] came in with an IC50 on androgen receptor [1] of 3.5 µM. For the same compound, at androgen receptor [2], the inhibition at 1 µM was 30.5%.

As for `O=C(Nc1ccc(F)c(C(F)(F)F)c1)C1CSC(c2ccc(Cl)cc2)=N1` (stereo not drawn) [Cmpd #14, 2-(4-chloro-phenyl)-4,5-dihydro-thiazole-4-carboxylic acid (4-fluoro-3-trifluoromethyl-phenyl)-amide], the inhibition at 1 µM at androgen receptor [2] was 1.5%.

With `O=C(Nc1ccc(Cl)cc1)C1CSC(c2ccc(Cl)cc2)=N1` (stereo not drawn) [Cmpd #16, 2-(4-chloro-phenyl)-4,5-dihydro-thiazole-4-carboxylic Acid (4-chloro-phenyl)-amide], the inhibition at 1 µM at androgen receptor [2] came out at 12%.

In the case of `O=C(Nc1ccc(Cl)c(C(F)(F)F)c1)C1CSC(c2cccc(F)c2)=N1` (stereo not drawn) [Cmpd #17, 2-(3-fluoro-phenyl)-4,5-dihydro-thiazole4-carboxylic Acid (4-chloro-3-trifluoromethyl-phenyl)-amide], the inhibition at 1 µM on androgen receptor [2] was -34%.

Consider `O=C(Nc1ccc(F)c(C(F)(F)F)c1)C1CSC(c2cccc(F)c2)=N1` (stereo not drawn) [Cmpd #18, 2-(3-fluoro-phenyl)-4,5-dihydro-thiazole-4-carboxylic Acid (4-fluoro-3-trifluoromethyl-phenyl)-amide], for which, at androgen receptor [2], the inhibition at 1 µM is -19%.

Regarding `CC1(C)SC(c2ccc(F)cc2)=NC1C(=O)Nc1ccc(C#N)c(C(F)(F)F)c1` (stereo not drawn) [Cmpd #19, 2-(4-fluoro-phenyl)-5,5-dimethyl-4,5-dihydro-thiazole-4-carboxylic Acid (4-cyano-3-trifluoromethyl-phenyl)-amide], the inhibition at 1 µM on androgen receptor [2] was -1%.

As for `CC1(C)SC(c2ccc(F)cc2)=NC1C(=O)Nc1ccc([N+](=O)[O-])c(C(F)(F)F)c1` (stereo not drawn) [Cmpd #20, 2-(4-fluoro-phenyl)-5,5-dimethyl-4,5-dihydro-thiazole-4-carboxylic Acid (4-nitro-3-trifluoromethyl-phenyl)-amide], at androgen receptor [2], the inhibition at 1 µM stood at 29%.

Regarding `CC1(C)SC(c2ccc(F)cc2)=NC1C(=O)Nc1ccc(Cl)c(C(F)(F)F)c1` (stereo not drawn) [Cmpd #21, 2-(4-fluoro-phenyl)-5,5-dimethyl-4,5-dihydro-thiazole-4-carboxylic Acid (4-chloro-3-trifluoromethyl-phenyl)-amide], the inhibition at 1 µM on androgen receptor [2] is 29%.

For `CC1(C)SC(c2ccc(Cl)cc2)=NC1C(=O)Nc1ccc(Cl)c(C(F)(F)F)c1` (stereo not drawn) [Cmpd #22, 2-(4-chloro-phenyl)-5,5-dimethyl-4,5-dihydro-thiazole-4-carboxylic Acid (4-chloro-3-trifluoromethyl-phenyl)-amide], at androgen receptor [2], the inhibition at 1 µM is 0%.

As for `CC1(C)SC(c2ccc(Cl)cc2)=NC1C(=O)Nc1cc(F)c(C#N)cc1F` (stereo not drawn) [Cmpd #23, 2-(4-chloro-phenyl)-5,5-dimethyl-4,5-dihydro-thiazole-4-carboxylic Acid (4-cyano-2,5-difluoro-phenyl)-amide], the inhibition at 1 µM on androgen receptor [2] is -5%.

For the compound `O=C(Nc1cccc(C(F)(F)F)c1F)C1CSC(c2ccc(Cl)cc2)=N1` (stereo not drawn) [Cmpd #24, 2-(4-chloro-phenyl)-4,5-dihydro-thiazole-4-carboxylic Acid (2-fluoro-3-trifluoromethyl-phenyl)-amide], the inhibition at 1 µM at androgen receptor [2] is 0.74%.

Take `O=C(Nc1cccc(C(F)(F)F)c1F)C1CSC(c2ccc(F)cc2)=N1` (stereo not drawn) [Cmpd #25, 2-(4-fluoro-phenyl)-4,5-dihydro-thiazole-4-carboxylic Acid (2-fluoro-3-trifluoromethyl-phenyl)-amide]: the inhibition at 1 µM at androgen receptor [2] is -8%.

`O=C(Nc1ccc(Cl)c(C(F)(F)F)c1)C1CSC(c2cccc(Cl)c2)=N1` (stereo not drawn) [Cmpd #26, 2-(3-chloro-phenyl)-4,5-dihydro-thiazole-4-carboxylic Acid (4-chloro-3-trifluoromethyl-phenyl)-amide]: on androgen receptor [2], the inhibition at 1 µM was 15%.

Turning to `N#Cc1ccc(NC(=O)C2CSC(c3cccc(Cl)c3)=N2)cc1C(F)(F)F` (stereo not drawn) [Cmpd #27, 2-(3-chloro-phenyl)-4,5-dihydro-thiazole-4-carboxylic Acid (4-cyano-3-trifluoromethyl-phenyl)-amide], the inhibition at 1 µM on androgen receptor [2] worked out at 34%.

`O=C(Nc1ccc(S(=O)(=O)C(F)(F)F)cc1)C1CSC(c2ccc(F)cc2)=N1` (stereo not drawn) [Cmpd #28, 2-(4-fluoro-phenyl)-4,5-dihydro-thiazole-4-carboxylic Acid (4-trifluoromethanesulfonyl-phenyl)-amide]: at androgen receptor [2], the inhibition at 1 µM was -6.3%.

`O=C(Nc1ccc(S(=O)(=O)C(F)(F)F)cc1)C1CSC(c2ccc(Cl)cc2)=N1` (stereo not drawn) [Cmpd #29, 2-(4-chloro-phenyl)-4,5-dihydro-thiazole-4-carboxylic Acid (4-trifluoromethanesulfonyl-phenyl)-amide]: the inhibition at 1 µM on androgen receptor [2] turned out to be 25%.

On to `O=C(Nc1ccc([N+](=O)[O-])c(C(F)(F)F)c1)C1CSC(c2cccc(Cl)c2)=N1` (stereo not drawn) [Cmpd #30, 2-(3-chloro-phenyl)-4,5-dihydro-thiazole-4-carboxylic Acid (4-nitro-3-trifluoromethyl-phenyl)-amide], for which the inhibition at 1 µM on androgen receptor [2] worked out at 7%.

`O=C(Nc1ccc(S(=O)(=O)C(F)(F)F)cc1)C1CSC(c2cccc(Cl)c2)=N1` (stereo not drawn) [Cmpd #31, 2-(3-chloro-phenyl)-4,5-dihydro-thiazole-4-carboxylic Acid (4-trifluoromethanesulfonyl-phenyl)-amide]: on androgen receptor [2], the inhibition at 1 µM came to 10%.

Consider `O=C(Nc1cccc(C(F)(F)F)c1F)C1CSC(c2cccc(Cl)c2)=N1` (stereo not drawn) [Cmpd #32, 2-(3-chloro-phenyl)-4,5-dihydro-thiazole4-carboxylic Acid (2-fluoro-3-trifluoromethyl-phenyl)-amide], for which the inhibition at 1 µM at androgen receptor [2] stood at 8.5%.

As to `CC1(C(=O)Nc2ccc(C#N)c(C(F)(F)F)c2)CSC(c2ccc(F)cc2)=N1` (stereo not drawn) [Cmpd #33, 2-(4-fluoro-phenyl)-4-methyl-4,5-dihydro-thiazole-4-carboxylic Acid (4cyano-3-trifluoromethyl-phenyl)-amide], on androgen receptor [2], the inhibition at 1 µM came out at 27%.

`O=C(Nc1ccc(Cl)c(C(F)(F)F)c1)C1CSC(c2ccc(F)cc2)=N1` (stereo not drawn) [compound 5, 2-(4-fluoro-phenyl)-4,5-dihydro-thiazole-4-carboxylic Acid (4-chloro-3-trifluoromethyl-phenyl)-amide]: the inhibition at 1 µM at androgen receptor [2] turned out to be 12.3%.

Turning to `CC1(C(=O)Nc2ccc(Cl)c(C(F)(F)F)c2)CSC(c2ccc(F)cc2)=N1` (stereo not drawn) [compound 12], the IC50 on androgen receptor [1] was greater than 10 µM. In addition, the inhibition at 1 µM at androgen receptor [2] is 52%.

With `CC1(C(=O)Nc2ccc([N+](=O)[O-])c(C(F)(F)F)c2)CSC(c2ccc(F)cc2)=N1` (stereo not drawn) [compound 13], on androgen receptor [1], the IC50 is greater than 10 µM. Besides, at androgen receptor [2], the inhibition at 1 µM turned out to be 29%.
